From US10131679B2, “Substituted dihydropyrrolopyrazole compound” (UBE INDUSTRIES, LTD., priority 2014, dated 2018)

Key:
[1] = test system: human large intestine cancer cell line (HCT-116); assay: Human large intestine cancer (HCT-116) cell growth inhibition test; format: cell-based; details: 72 h, HCT-116, culture for 3 days, sulforhodamine B absorbance
Experimental: Human Large Intestine Cancer (HCT-116) Cell Growth Inhibition Test
The measurement of a human large intestine cancer cell growth inhibitory effect was carried out by modifying the method of Simak et al. (Cancer Research, 69, 6208 (2009)).
A human large intestine cancer cell line (HCT-116) (manufactured by DS Pharma Biomedical Co., Ltd., Cat. No. EC91091005) was cultured in McCoy's 5a (manufactured by GIBCO/Thermo Fisher Scientific, Inc., REF. 16600-082) medium containing 10% FBS (manufactured by GIBCO/Thermo Fisher Scientific, Inc., REF. 10082-147) and 1% penicillin/streptomycin/amphotericin B (manufactured by GIBCO/Thermo Fisher Scientific, Inc., REF. 15240-096) and inoculated at 1.0×10^3 cells/well in a 96-well plate (manufactured by Corning Inc., REF. 353072). After overnight culture in a carbon dioxide incubator, it was replaced with a fresh McCoy's 5a medium containing 10% FBS on the next day, and a test compound dissolved in DMSO (manufactured by Wako Pure Chemical Industries, Ltd., Code No. 043-07216) (final DMSO concentration: 0.1%) was added and left standing in a carbon dioxide incubator. After culturing for 3 days, the absorbance of each well was measured by using In Vitro Toxicology Assay Kit Sulforhodamine B based (manufactured by Sigma-Aldrich Co. LLC., Pcode 1001910706).
The rate of inhibition of cell growth at each concentration was calculated from the test compound concentration and the absorbance of sulforhodamine B, and the concentration of the test compound necessary for inhibiting 50% of cell growth (IC50 value) was calculated by using EXSUS (version 8.0.0 or version 8.0.1, manufactured by CAC Exicare Corp.).

[2] = target: T1, CDK7 (Homo sapiens, UniProt P50613); assay: CDK7 enzyme inhibition test; format: biochemical; details: Ki=IC50/(1+S/Km); 33P bound to MBP, [γ-33P]ATP, 30° C. for 20 minutes; read-out: Ki value of CDK7 inhibitory activity
T1 construct: purchased Carna Biosciences, Inc. 04-108
T1 sequence (P50613 whole entry): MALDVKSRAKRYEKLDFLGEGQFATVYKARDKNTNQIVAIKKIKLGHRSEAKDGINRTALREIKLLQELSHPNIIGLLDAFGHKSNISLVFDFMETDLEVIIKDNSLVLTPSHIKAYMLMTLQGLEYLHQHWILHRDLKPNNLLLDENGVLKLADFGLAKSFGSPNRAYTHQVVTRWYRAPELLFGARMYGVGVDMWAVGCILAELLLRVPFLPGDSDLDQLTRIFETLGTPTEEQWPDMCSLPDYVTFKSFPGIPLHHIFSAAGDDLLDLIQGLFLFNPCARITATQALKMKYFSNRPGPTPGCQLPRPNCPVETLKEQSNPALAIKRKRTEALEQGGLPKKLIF
T1 sequence (P51946 whole entry partner): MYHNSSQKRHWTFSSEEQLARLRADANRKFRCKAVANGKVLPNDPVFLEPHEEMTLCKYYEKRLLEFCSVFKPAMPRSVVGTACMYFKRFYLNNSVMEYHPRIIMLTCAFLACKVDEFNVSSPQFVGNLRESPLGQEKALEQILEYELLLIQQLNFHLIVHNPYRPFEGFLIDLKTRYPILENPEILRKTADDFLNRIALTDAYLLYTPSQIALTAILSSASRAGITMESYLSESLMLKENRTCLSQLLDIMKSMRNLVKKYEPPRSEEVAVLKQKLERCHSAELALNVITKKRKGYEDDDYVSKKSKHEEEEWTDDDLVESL
T1 sequence (P51948 whole entry partner): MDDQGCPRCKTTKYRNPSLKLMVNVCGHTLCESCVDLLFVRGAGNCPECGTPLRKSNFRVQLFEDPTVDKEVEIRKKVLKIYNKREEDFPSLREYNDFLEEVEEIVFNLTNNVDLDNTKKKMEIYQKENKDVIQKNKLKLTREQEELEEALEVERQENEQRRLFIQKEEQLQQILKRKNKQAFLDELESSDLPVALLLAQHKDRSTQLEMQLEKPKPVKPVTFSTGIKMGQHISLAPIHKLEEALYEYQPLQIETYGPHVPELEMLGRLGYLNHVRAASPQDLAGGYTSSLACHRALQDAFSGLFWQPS
Experimental: CDK7 Enzyme Inhibition Test
The preparation of a buffer solution was performed by mixing a N-2-hydroxyethylpiperazine-N′-2-ethanesulfonic acid buffer solution (HEPES buffer solution) (pH 7.4), dithiothreitol (DTT), Triton X-100, and magnesium chloride (MgCl2). A 500 μM [γ-^33P]ATP solution was used by diluting a 10 mM ATP solution and a commercially available [γ-^33P]ATP solution (manufactured by PerkinElmer, Inc., Code No. NEG-302H) with the buffer solution. A CDK7 solution was used by diluting commercially available CDK7 (manufactured by Carna Biosciences, Inc., Catalog No. 04-108) with the buffer solution. A substrate solution was used by diluting myelin basic protein (MBP) with the buffer solution. As for the preparation of a reaction solution, the buffer solution, the 500 μM [γ-^33P]ATP solution, the CDK7 solution, and the substrate solution were mixed at 4° C. to obtain a reaction solution.
CDK7 enzyme reaction was performed by adding 5 μL of a test compound solution prepared with 10% dimethyl sulfoxide (DMSO)/90% injectable distilled water, and 45 μL of the reaction solution to a 1.5 mL microtube at 4° C. and reacting in the microtube at 30° C. for 20 minutes in a water bath incubator. After the reaction, a 10% aqueous trichloroacetic acid (TCA) solution was added to each microtube while cooled to 4° C., and mixed to terminate the reaction. The resultant was left standing at 4° C. for 10 minutes and then centrifuged in a centrifuge, and the supernatant was discarded. Next, a 2% aqueous TCA solution was added, mixed, and then centrifuged in a centrifuge, and the supernatant was discarded. This washing operation was performed twice. After the washing, precipitates were dissolved in a 1 N aqueous sodium hydroxide (NaOH) solution, and the energy quantity (radioactivity) of the reaction product was measured with a liquid scintillation counter.
The calculation of the inhibitory activity of the test compound against CDK7 was performed as a test compound concentration inhibiting 50% of the amount of ^33P bound to MBP (IC50 value) by using EXSUS (version 8.0.0 or version 8.0.1, manufactured by CAC Exicare Corp.).
(§1) The calculation of a Ki value was performed according to the following calculation expression. S means the concentration of ATP contained in the reaction solution, and Km means a Michaelis-Menten constant. Ki=IC50/(1+S/Km)

[3] = target: T2, CDK2 (Homo sapiens, UniProt P24941); assay: CDK2 enzyme inhibition test; format: biochemical; details: Ki=IC50/(1+S/Km); 33P bound to MBP, [γ-33P]ATP, 30° C. for 20 minutes; read-out: Ki value of CDK2 inhibitory activity
T2 construct: purchased Invitrogen Corp. PV3267
Experimental: CDK2 Enzyme Inhibition Test
The preparation of a buffer solution was performed by mixing a HEPES buffer solution (pH 7.4), DTT, Triton X-100, and MgCl2. A 500 μM [γ-^33P]ATP solution was used by diluting a 10 mM ATP solution and a commercially available [γ-^33P]ATP solution (manufactured by PerkinElmer, Inc., Code No. NEG-302H) with the buffer solution. A CDK2 solution was used by diluting commercially available CDK2 (manufactured by Invitrogen Corp., Catalog No. PV3267) with the buffer solution. A substrate solution was used by diluting MBP with the buffer solution. As for the preparation of a reaction solution, the buffer solution, the 500 μM [γ-^33P]ATP solution, the CDK2 solution, and the substrate solution were mixed at 4° C. to obtain a reaction solution.
CDK2 enzyme reaction was performed by adding 5 μL of a test compound solution prepared with 10% DMSO/90% injectable distilled water, and 45 μL of the reaction solution in a 1.5 mL microtube at 4° C. and reacting in the microtube at 30° C. for 20 minutes in a water bath incubator. After the reaction, a 10% aqueous TCA solution was added to each microtube while cooled to 4° C., and mixed to terminate the reaction. The resultant was left standing at 4° C. for 10 minutes and then centrifuged in a centrifuge, and the supernatant was discarded. Next, a 2% aqueous TCA solution was added, mixed thereto, and then centrifuged in a centrifuge, and the supernatant was discarded. This washing operation was performed twice. After the washing, precipitates were dissolved in a 1 N aqueous NaOH solution, and the radioactivity was measured with a liquid scintillation counter.
The calculation of the inhibitory activity of the test compound against CDK2 was performed as a test compound concentration inhibiting 50% of the amount of ^33P bound to MBP (IC50 value) by using EXSUS (version 8.0.0 or version 8.0.1, manufactured by CAC Exicare Corp.).
as §1

SMILES | IC50 [1] | Ki [2] | Ki [3]
CC(C)(CO)C(NC(=O)N1Cc2c(NC(=O)C3([Si](C)(C)C)CCC3)n[nH]c2C1(C)C)c1ccccc1F (stereo not shown) [IV-890, N-[1-(2-Fluorophenyl)-3-hydroxy-2,2-dimethylpropyl]-6,6-dimethyl-3-[1-(trimethylsilyl)cyclobutanecarboxamido]-4,6-dihydropyrrolo[3,4-c]pyrazole-5(1H)-carboxamide] | ≤ 500 nM |  | ≥ 1000 nM
CC1(C)c2[nH]nc(NC(=O)C3([Si](C)(C)C)CCC3)c2CN1C(=O)[C@@H](CO)c1ccccc1 [IV-1215, (R)—N-[5-(3-Hydroxy-2-phenylpropanoyl)-6,6-dimethyl-1,4,5,6-tetrahydropyrrolo[3,4-c]pyrazol-3-yl]-1-(trimethylsilyl)cyclobutanecarboxamide] | ≤ 500 nM | ≤ 50 nM | 
COC(C)C(=O)N1Cc2c(NC(=O)C3([Si](C)(C)C)CCC3)n[nH]c2C1(C)C (stereo not shown) [IV-1241, N-[5-(2-Methoxypropanoyl)-6,6-dimethyl-1,4,5,6-tetrahydropyrrolo[3,4-c]pyrazol-3-yl]-1-(trimethylsilyl)cyclobutanecarboxamide] | ≤ 500 nM | ≤ 50 nM | 
CC(Oc1cccnc1)C(=O)N1Cc2c(NC(=O)C3([Si](C)(C)C)CCC3)n[nH]c2C1(C)C (stereo not shown) [IV-1274, N-{6,6-Dimethyl-5-[2-(pyridin-3-yloxy)propanoyl]-1,4,5,6-tetrahydropyrrolo[3,4-c]pyrazol-3-yl}-1-(trimethylsilyl)cyclobutanecarboxamide] | ≤ 500 nM | ≤ 50 nM | 
CC1(C)c2[nH]nc(NC(=O)C3([Si](C)(C)C)CCC3)c2CN1C(=O)C(CO)Oc1ccccc1 (stereo not shown) [IV-1330, N-[5-(3-Hydroxy-2-phenoxypropanoyl)-6,6-dimethyl-1,4,5,6-tetrahydropyrrolo[3,4-c]pyrazol-3-yl]-1-(trimethylsilyl)cyclobutanecarboxamide] | ≤ 500 nM | ≤ 50 nM | 
COCC(Oc1ccccc1)C(=O)N1Cc2c(NC(=O)C3([Si](C)(C)C)CCC3)n[nH]c2C1(C)C (stereo not shown) [IV-1348, N-[5-(3-Methoxy-2-phenoxypropanoyl)-6,6-dimethyl-1,4,5,6-tetrahydropyrrolo[3,4-c]pyrazol-3-yl]-1-(trimethylsilyl)cyclobutanecarboxamide] | ≤ 500 nM | ≤ 50 nM | 
COC(C(=O)N1Cc2c(NC(=O)C3([Si](C)(C)C)CCC3)n[nH]c2C1(C)C)c1ccc(F)cc1 (stereo not shown) [IV-1427, N-{5-[2-(4-Fluorophenyl)-2-methoxyacetyl]-6,6-dimethyl-1,4,5,6-tetrahydropyrrolo[3,4-c]pyrazol-3-yl}-1-(trimethylsilyl)cyclobutanecarboxamide] | ≤ 500 nM | ≤ 50 nM | 

Further lines, with some results ahead:

IC50 [1] | Ki [2] | SMILES | Ki [3]
≤ 500 nM | ≤ 50 nM | CC1(C)c2[nH]nc(NC(=O)C3([Si](C)(C)C)CCC3)c2CN1C(=O)NC[C@H](O)c1ccccc1 [IV-786, (R)—N-(2-Hydroxy-2-phenylethyl)-6,6-dimethyl-3-[1-(trimethylsilyl)cyclobutanecarboxamido]-4,6-dihydropyrrolo[3,4-c]pyrazole-5(1H)-carboxamide] | 
≤ 500 nM | ≤ 50 nM | CC1(C)c2[nH]nc(NC(=O)C3([Si](C)(C)C)CCC3)c2CN1C(=O)NC[C@@H](O)c1ccccc1 [IV-787, (S)—N-(2-Hydroxy-2-phenylethyl)-6,6-dimethyl-3-[1-(trimethylsilyl)cyclobutanecarboxamido]-4,6-dihydropyrrolo[3,4-c]pyrazole-5(1H)-carboxamide] | 
≤ 500 nM | ≤ 50 nM | CC(C)[C@@H](CC(C)(C)O)NC(=O)N1Cc2c(NC(=O)C3([Si](C)(C)C)CCC3)n[nH]c2C1(C)C [IV-815, (R)—N-(5-Hydroxy-2,5-dimethylhexan-3-yl)-6,6-dimethyl-3-[1-(trimethylsilyl)cyclobutanecarboxamido]-4,6-dihydropyrrolo[3,4-c]pyrazole-5(1H)-carboxamide] | 
≤ 500 nM | ≤ 50 nM | CC1(C)c2[nH]nc(NC(=O)C3([Si](C)(C)C)CCC3)c2CN1C(=O)N[C@H](CO)Cc1ccccc1 [IV-862, (S)—N-(1-Hydroxy-3-phenylpropan-2-yl)-6,6-dimethyl-3-[1-(trimethylsilyl)cyclobutanecarboxamido]-4,6-dihydropyrrolo[3,4-c]pyrazole-5(1H)-carboxamide] | 
≤ 500 nM | ≤ 50 nM | CC1(C)c2[nH]nc(NC(=O)C3([Si](C)(C)C)CCC3)c2CN1C(=O)N[C@H](CO)c1ccccc1Cl [IV-959, (S)—N-[1-(2-Chlorophenyl)-2-hydroxyethyl]-6,6-dimethyl-3-[1-(trimethylsilyl)cyclobutanecarboxamido]-4,6-dihydropyrrolo[3,4-c]pyrazole-5(1H)-carboxamide] | 
≤ 500 nM | ≤ 50 nM | Cc1ccccc1[C@@H](CO)NC(=O)N1Cc2c(NC(=O)C3([Si](C)(C)C)CCC3)n[nH]c2C1(C)C [IV-1067, (S)—N-[2-Hydroxy-1-(o-tolyl)ethyl]-6,6-dimethyl-3-[1-(trimethylsilyl)cyclobutanecarboxamido]-4,6-dihydropyrrolo[3,4-c]pyrazole-5(1H)-carboxamide] | 
≤ 500 nM | ≤ 50 nM | CO[C@H](C(=O)N1Cc2c(NC(=O)C3([Si](C)(C)C)CCC3)n[nH]c2C1(C)C)c1ccccc1 [IV-1176, (S)—N-[5-(2-Methoxy-2-phenylacetyl)-6,6-dimethyl-1,4,5,6-tetrahydropyrrolo[3,4-c]pyrazol-3-yl]-1-(trimethylsilyl)cyclobutanecarboxamide] | 
